From ChEMBL document CHEMBL4804284

Legend:
Parameters in all cases: scale not given: the % may be the effect or the level left
[1] = biological target: Mitogen-activated protein kinase kinase kinase kinase 1 (Homo sapiens) (UniProt Q92918); experiment: Inhibition of DNA-tagged human HPK1 assessed as percent of control at 50000 nM by qPCR analysis relative to control
[2] = biological target: Homeodomain-interacting protein kinase 3 (Homo sapiens) (UniProt Q9H422); experiment: Inhibition of DNA-tagged human HIPK3 assessed as percent of control at 50000 nM by qPCR analysis relative to control
[3] = biological target: Rhodopsin kinase GRK1 (Homo sapiens) (UniProt Q15835); experiment: Inhibition of DNA-tagged human GRK1 assessed as percent of control at 50000 nM by qPCR analysis relative to control
[4] = biological target: Tyrosine-protein kinase FRK (Homo sapiens) (UniProt P42685); experiment: Inhibition of DNA-tagged human FRK assessed as percent of control at 50000 nM by qPCR analysis relative to control
[5] = system: Receptor-type tyrosine-protein kinase FLT3 (Homo sapiens), P36888 [K663Q]; experiment: Inhibition of DNA-tagged human FLT3 K663Q mutant assessed as percent of control at 50000 nM by qPCR analysis relative to control
[6] = biological target: Fibroblast growth factor receptor 3 (Homo sapiens) (UniProt P22607); experiment: Inhibition of DNA-tagged human FGFR3 assessed as percent of control at 50000 nM by qPCR analysis relative to control
[7] = biological target: Ephrin type-B receptor 4 (Homo sapiens) (UniProt P54760); experiment: Inhibition of DNA-tagged human EPHB4 assessed as percent of control at 50000 nM by qPCR analysis relative to control
[8] = biological target: Myotonin-protein kinase (Homo sapiens) (UniProt Q09013); experiment: Inhibition of DNA-tagged human DMPK assessed as percent of control at 50000 nM by qPCR analysis relative to control
[9] = biological target: Mitogen-activated protein kinase kinase kinase 12 (Homo sapiens) (UniProt Q12852); experiment: Inhibition of DNA-tagged human DLK assessed as percent of control at 50000 nM by qPCR analysis relative to control
[10] = biological target: Serine/threonine-protein kinase DCLK2 (Homo sapiens) (UniProt Q8N568); experiment: Inhibition of DNA-tagged human DCAMKL2 assessed as percent of control at 50000 nM by qPCR analysis relative to control
[11] = biological target: Casein kinase I isoform gamma-1 (Homo sapiens) (UniProt Q9HCP0); experiment: Inhibition of DNA-tagged human CSNK1G1 assessed as percent of control at 50000 nM by qPCR analysis relative to control
[12] = biological target: Dual specificity protein kinase CLK1 (Homo sapiens) (UniProt P49759); experiment: Inhibition of DNA-tagged human CLK1 assessed as percent of control at 50000 nM by qPCR analysis relative to control
[13] = biological target: Cyclin-dependent kinase-like 3 (Homo sapiens) (UniProt Q8IVW4); experiment: Inhibition of DNA-tagged human CDKL3 assessed as percent of control at 50000 nM by qPCR analysis relative to control
[14] = biological target: Calcium/calmodulin-dependent protein kinase kinase 1 (Homo sapiens) (UniProt Q8N5S9); experiment: Inhibition of DNA-tagged human CAMKK1 assessed as percent of control at 50000 nM by qPCR analysis relative to control
[15] = biological target: MAP kinase-activated protein kinase 5 (Homo sapiens) (UniProt Q8IW41); experiment: Inhibition of DNA-tagged human MAPKAPK5 assessed as percent of control at 50000 nM by qPCR analysis relative to control
[16] = biological target: Misshapen-like kinase 1 (Homo sapiens) (UniProt Q8N4C8); experiment: Inhibition of DNA-tagged human MINK assessed as percent of control at 50000 nM by qPCR analysis relative to control
[17] = biological target: Mitogen-activated protein kinase kinase kinase 9 (Homo sapiens) (UniProt P80192); experiment: Inhibition of DNA-tagged human MLK1 assessed as percent of control at 50000 nM by qPCR analysis relative to control
[18] = biological target: Myosin-IIIa (Homo sapiens) (UniProt Q8NEV4); experiment: Inhibition of DNA-tagged human MYO3A assessed as percent of control at 50000 nM by qPCR analysis relative to control
[19] = biological target: Serine/threonine-protein kinase PAK 3 (Homo sapiens) (UniProt O75914); experiment: Inhibition of DNA-tagged human PAK3 assessed as percent of control at 50000 nM by qPCR analysis relative to control
[20] = biological target: Cyclin-dependent kinase 15 (Homo sapiens) (UniProt Q96Q40); experiment: Inhibition of DNA-tagged human PFTAIRE2 assessed as percent of control at 50000 nM by qPCR analysis relative to control
[21] = biological target: Cyclin-dependent kinase 14 (Homo sapiens) (UniProt O94921); experiment: Inhibition of DNA-tagged human PFTK1 assessed as percent of control at 50000 nM by qPCR analysis relative to control
[22] = biological target: Phosphatidylinositol 4,5-bisphosphate 3-kinase catalytic subunit gamma isoform (Homo sapiens) (UniProt P48736); experiment: Inhibition of DNA-tagged human PIK3CG assessed as percent of control at 50000 nM by qPCR analysis relative to control
[23] = biological target: Phosphatidylinositol 5-phosphate 4-kinase type-2 beta (Homo sapiens) (UniProt P78356); experiment: Inhibition of DNA-tagged human PIP5K2B assessed as percent of control at 50000 nM by qPCR analysis relative to control
[24] = biological target: Protein kinase C iota type (Homo sapiens) (UniProt P41743); experiment: Inhibition of DNA-tagged human PRKCI assessed as percent of control at 50000 nM by qPCR analysis relative to control
[25] = biological target: RAF proto-oncogene serine/threonine-protein kinase (Homo sapiens) (UniProt P04049); experiment: Inhibition of DNA-tagged human RAF1 assessed as percent of control at 50000 nM by qPCR analysis relative to control
[26] = biological target: Serine/threonine-protein kinase RIO3 (Homo sapiens) (UniProt O14730); experiment: Inhibition of DNA-tagged human RIOK3 assessed as percent of control at 50000 nM by qPCR analysis relative to control
[27] = biological target: SRSF protein kinase 2 (Homo sapiens) (UniProt P78362); experiment: Inhibition of DNA-tagged human SRPK2 assessed as percent of control at 50000 nM by qPCR analysis relative to control
[28] = biological target: Serine/threonine-protein kinase 33 (Homo sapiens) (UniProt Q9BYT3); experiment: Inhibition of DNA-tagged human STK33 assessed as percent of control at 50000 nM by qPCR analysis relative to control
[29] = biological target: Tyrosine-protein kinase TXK (Homo sapiens) (UniProt P42681); experiment: Inhibition of DNA-tagged human TXK assessed as percent of control at 50000 nM by qPCR analysis relative to control
[30] = biological target: Tyrosine-protein kinase receptor TYRO3 (Homo sapiens) (UniProt Q06418); experiment: Inhibition of DNA-tagged human TYRO3 assessed as percent of control at 50000 nM by qPCR analysis relative to control

Phosphatidylinositol 5-phosphate 4-kinase type-2 beta (Homo sapiens), sequence (P78356 whole entry): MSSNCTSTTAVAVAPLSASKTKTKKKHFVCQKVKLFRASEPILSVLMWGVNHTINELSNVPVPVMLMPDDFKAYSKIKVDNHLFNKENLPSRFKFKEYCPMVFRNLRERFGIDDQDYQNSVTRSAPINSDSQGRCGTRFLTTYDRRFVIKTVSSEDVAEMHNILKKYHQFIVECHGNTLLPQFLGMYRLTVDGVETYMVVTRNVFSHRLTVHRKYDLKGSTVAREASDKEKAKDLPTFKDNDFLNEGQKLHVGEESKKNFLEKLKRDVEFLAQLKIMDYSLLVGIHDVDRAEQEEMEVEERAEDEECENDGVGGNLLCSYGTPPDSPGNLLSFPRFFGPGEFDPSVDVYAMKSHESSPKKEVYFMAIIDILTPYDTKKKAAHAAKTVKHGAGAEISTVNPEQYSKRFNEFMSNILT
Ephrin type-B receptor 4 (Homo sapiens), sequence (P54760 whole entry): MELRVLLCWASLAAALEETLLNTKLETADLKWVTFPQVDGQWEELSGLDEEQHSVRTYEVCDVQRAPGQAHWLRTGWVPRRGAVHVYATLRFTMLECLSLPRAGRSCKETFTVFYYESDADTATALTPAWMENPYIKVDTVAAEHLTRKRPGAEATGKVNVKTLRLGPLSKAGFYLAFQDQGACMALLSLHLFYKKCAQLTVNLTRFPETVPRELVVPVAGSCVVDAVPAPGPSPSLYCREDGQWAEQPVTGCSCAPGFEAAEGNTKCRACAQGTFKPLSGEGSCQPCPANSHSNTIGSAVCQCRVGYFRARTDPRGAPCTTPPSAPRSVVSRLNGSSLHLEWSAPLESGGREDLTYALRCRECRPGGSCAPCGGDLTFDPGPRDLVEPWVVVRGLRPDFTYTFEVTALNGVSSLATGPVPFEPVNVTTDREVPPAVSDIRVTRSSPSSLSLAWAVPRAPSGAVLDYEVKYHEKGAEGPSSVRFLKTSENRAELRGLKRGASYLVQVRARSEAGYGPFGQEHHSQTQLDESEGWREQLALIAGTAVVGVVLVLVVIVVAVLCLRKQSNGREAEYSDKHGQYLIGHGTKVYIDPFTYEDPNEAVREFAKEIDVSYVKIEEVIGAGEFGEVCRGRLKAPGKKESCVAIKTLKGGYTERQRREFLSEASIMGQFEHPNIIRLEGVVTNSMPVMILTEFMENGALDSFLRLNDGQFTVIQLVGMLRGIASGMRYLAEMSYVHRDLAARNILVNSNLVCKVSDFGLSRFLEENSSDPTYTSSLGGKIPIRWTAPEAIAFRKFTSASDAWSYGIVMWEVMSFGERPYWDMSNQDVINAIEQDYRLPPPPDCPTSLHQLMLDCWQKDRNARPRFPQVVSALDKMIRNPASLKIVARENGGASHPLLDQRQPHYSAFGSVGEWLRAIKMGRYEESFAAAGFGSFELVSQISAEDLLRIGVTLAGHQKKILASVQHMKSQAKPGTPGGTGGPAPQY
Mitogen-activated protein kinase kinase kinase kinase 1 (Homo sapiens), sequence (Q92918 whole entry, looked up): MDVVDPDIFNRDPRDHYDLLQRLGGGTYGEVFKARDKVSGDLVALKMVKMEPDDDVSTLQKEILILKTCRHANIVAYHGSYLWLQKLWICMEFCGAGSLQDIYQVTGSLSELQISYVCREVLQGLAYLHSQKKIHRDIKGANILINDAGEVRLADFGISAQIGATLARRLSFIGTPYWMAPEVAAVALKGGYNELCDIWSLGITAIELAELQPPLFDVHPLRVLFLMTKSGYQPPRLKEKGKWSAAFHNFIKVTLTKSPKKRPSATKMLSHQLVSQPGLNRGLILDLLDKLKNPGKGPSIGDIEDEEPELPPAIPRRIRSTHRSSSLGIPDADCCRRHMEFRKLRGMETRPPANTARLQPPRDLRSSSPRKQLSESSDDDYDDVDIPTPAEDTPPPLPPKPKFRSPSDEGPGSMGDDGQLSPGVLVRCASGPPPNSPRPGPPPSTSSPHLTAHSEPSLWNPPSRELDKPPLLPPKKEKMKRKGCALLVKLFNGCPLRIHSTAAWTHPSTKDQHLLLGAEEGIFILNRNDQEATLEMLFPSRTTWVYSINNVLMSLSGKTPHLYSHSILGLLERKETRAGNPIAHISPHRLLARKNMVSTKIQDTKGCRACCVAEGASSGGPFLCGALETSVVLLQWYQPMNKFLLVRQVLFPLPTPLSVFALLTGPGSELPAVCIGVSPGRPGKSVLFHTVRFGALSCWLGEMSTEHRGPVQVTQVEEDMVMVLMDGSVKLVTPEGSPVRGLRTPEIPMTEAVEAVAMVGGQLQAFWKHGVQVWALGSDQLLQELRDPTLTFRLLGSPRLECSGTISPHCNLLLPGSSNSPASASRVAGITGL
Cyclin-dependent kinase 14 (Homo sapiens), sequence (O94921 whole entry, canonical isoform): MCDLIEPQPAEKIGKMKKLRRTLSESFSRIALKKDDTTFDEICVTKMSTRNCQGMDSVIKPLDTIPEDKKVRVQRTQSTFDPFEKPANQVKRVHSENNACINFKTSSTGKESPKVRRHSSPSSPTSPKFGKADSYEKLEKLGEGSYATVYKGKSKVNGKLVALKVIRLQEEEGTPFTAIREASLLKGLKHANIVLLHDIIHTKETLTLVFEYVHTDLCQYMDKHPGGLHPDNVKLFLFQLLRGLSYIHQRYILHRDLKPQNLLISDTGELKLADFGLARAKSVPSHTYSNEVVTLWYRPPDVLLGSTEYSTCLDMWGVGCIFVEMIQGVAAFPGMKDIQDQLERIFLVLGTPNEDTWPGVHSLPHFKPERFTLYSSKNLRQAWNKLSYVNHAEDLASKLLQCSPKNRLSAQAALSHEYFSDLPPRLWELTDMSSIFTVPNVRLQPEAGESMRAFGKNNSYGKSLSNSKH
Myosin-IIIa (Homo sapiens), sequence (Q8NEV4 whole entry): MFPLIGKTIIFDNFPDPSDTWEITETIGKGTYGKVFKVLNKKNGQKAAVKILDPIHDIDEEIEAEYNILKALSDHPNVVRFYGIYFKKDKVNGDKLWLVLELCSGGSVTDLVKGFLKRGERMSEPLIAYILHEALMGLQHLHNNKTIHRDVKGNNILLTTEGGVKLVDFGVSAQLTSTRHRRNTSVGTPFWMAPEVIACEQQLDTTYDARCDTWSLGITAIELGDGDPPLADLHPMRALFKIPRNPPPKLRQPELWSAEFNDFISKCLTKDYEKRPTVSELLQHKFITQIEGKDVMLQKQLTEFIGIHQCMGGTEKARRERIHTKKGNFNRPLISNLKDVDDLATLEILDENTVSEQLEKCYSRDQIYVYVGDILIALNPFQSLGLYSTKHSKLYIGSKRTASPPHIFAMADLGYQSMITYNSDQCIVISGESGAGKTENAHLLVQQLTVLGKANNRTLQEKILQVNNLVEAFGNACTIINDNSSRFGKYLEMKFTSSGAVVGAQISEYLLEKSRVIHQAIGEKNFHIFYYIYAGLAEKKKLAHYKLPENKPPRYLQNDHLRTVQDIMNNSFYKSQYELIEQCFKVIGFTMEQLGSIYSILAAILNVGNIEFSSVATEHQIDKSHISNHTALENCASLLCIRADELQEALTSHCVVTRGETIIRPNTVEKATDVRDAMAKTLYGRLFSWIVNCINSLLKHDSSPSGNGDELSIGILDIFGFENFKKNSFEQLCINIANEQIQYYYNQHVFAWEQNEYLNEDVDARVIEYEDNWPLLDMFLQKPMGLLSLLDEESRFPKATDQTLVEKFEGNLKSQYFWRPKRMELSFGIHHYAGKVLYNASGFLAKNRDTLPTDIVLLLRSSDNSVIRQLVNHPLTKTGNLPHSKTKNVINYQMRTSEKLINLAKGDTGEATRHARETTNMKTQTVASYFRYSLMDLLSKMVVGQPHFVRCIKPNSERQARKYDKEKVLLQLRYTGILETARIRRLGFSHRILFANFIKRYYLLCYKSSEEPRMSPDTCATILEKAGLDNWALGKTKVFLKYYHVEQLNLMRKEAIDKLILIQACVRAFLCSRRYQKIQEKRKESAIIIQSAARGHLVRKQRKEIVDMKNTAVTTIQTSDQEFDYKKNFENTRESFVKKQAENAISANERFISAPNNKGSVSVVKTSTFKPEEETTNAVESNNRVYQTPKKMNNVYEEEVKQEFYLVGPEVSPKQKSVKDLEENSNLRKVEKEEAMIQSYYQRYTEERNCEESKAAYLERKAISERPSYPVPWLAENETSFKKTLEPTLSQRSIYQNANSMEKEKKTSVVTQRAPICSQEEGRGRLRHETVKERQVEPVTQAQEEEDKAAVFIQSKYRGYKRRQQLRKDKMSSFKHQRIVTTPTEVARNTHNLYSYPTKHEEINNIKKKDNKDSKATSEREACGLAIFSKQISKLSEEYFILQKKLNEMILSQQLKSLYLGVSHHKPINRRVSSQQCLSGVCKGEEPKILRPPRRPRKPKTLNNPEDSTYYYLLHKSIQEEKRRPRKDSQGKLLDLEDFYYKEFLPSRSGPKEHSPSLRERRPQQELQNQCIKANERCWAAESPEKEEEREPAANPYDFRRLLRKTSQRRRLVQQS
Fibroblast growth factor receptor 3 (Homo sapiens), sequence (P22607 23-806 limits assumed): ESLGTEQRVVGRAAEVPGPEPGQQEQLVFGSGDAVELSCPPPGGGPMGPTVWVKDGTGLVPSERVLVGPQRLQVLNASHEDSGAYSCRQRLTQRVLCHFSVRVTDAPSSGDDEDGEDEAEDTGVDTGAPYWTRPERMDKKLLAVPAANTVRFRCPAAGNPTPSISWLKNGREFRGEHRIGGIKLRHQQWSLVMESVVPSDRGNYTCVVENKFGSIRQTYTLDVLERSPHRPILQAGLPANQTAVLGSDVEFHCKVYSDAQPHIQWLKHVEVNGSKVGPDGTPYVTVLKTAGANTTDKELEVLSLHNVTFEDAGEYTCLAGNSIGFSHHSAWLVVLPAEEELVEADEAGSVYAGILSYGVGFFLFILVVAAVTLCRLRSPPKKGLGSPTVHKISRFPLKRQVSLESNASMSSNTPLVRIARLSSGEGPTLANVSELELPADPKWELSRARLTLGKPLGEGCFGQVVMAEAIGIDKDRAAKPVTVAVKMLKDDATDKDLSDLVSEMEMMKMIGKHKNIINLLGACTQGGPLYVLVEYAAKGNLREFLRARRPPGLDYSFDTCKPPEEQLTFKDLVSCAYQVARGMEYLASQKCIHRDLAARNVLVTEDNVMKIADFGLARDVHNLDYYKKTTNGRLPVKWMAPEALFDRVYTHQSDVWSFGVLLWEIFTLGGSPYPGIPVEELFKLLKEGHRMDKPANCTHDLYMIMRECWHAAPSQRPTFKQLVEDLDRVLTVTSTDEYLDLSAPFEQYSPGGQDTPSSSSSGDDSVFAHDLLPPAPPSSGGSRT

CN1C(=O)/C(=C2/C(=O)Nc3ccccc32)c2ccccc21
Activity [1]: 93%
Activity [2]: 80%
Activity [3]: 100%
Activity [4]: 96%
Activity [5]: 91%
Activity [6]: 100%
Activity [7]: 98%
Activity [8]: 84%
Activity [9]: 100%
Activity [10]: 93%
Activity [11]: 95%
Activity [12]: 100%
Activity [13]: 100%
Activity [14]: 86%
Activity [15]: 100%
Activity [16]: 75%
Activity [17]: 100%
Activity [18]: 100%
Activity [19]: 93%
Activity [20]: 88%
Activity [21]: 94%
Activity [22]: 100%
Activity [23]: 100%
Activity [24]: 100%
Activity [25]: 100%
Activity [26]: 89%
Activity [27]: 100%
Activity [28]: 100%
Activity [29]: 100%
Activity [30]: 77%
